The supplement of paper PMC9549728
Structures can show the parent of a compound that is named as a salt.

Tests used:
Assay in all cases: IC50 (viability, PrestoBlue) (log10 nM)
Conditions in all cases: exposure time: 72 h
[1] = test system: murine gastric organoid diffuse (Cdh1 fl/fl; Apc fl/fl)
Description: (§1)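 Murine gastric corpus organoids (normal uninduced; RAS-activated Kras G12D/Tp53 R172H; diffuse Cdh1/Apc loss; WNT-activated Apc loss/Tp53 R172H) were seeded in Matrigel into pre-spotted 384-well plates. The plates held a 196-compound library at 6.7 nM to 25,004 nM (9 doses) and were incubated 72 h. Viability was read by PrestoBlue fluorescence (560/590 nm). IC50 came from non-linear regression (Prism), reported as log10 IC50 in nM, mean of 3 passages x 2 wells.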

[2] = test system: murine gastric organoid WNT-activated (Apc fl/fl; Tp53 R172H)
Description: as §1

[3] = test system: murine normal gastric organoid
Description: as §1

[4] = test system: murine gastric organoid RAS-activated (Kras G12D; Tp53 R172H)
Description: as §1

Row | SMILES | IC50 (log10 nM) [1] | IC50 (log10 nM) [2] | IC50 (log10 nM) [3] | IC50 (log10 nM) [4]
1 | C[C@@H](Oc1cc(-c2cnn(C3CCNCC3)c2)cnc1N)c1c(Cl)ccc(F)c1Cl [Crizotinib] | 3.22 | 2.95 | 3.4 | 2.96
2 | CC(=O)Nc1cccc(-n2c(=O)n(C3CC3)c(=O)c3c(Nc4ccc(I)cc4F)n(C)c(=O)c(C)c32)c1 [Trametinib] | 1.71 | 1.9 | 1.36 | 1.33
3 | CS(=O)(=O)CCNCc1ccc(-c2ccc3ncnc(Nc4ccc(OCc5cccc(F)c5)c(Cl)c4)c3c2)o1 [Lapatinib] | 2.84 | 2.43 | 2.54 | 3.12
4 | CN1CCN(c2ccc3nc(-c4c(N)c5c(F)cccc5[nH]c4=O)[nH]c3c2)CC1 [Dovitinib] | 3.4 | 3.41 | 3.21 | 3.46
5 | O=c1[nH]c(=O)n([C@H]2C[C@H](O)[C@@H](CO)O2)cc1F [Floxuridine] | 3.8 | 1.61 | 2.96 | 3.16
6 | Cc1ccc(F)c(NC(=O)Nc2ccc(-c3cccc4[nH]nc(N)c34)cc2)c1 [Linifanib] | 4.2 | 3.77 | 3.7 | 3.05
7 | CC[C@@H]1C(=O)N(C)c2cnc(Nc3ccc(C(=O)N[C@H]4CC[C@H](N5CCN(CC6CC6)CC5)CC4)cc3OC)nc2N1C(C)C [Volasertib] | 2.29 | 2.19 | 1.98 | 2.09
8 | CC(C)C[C@H](NC(=O)[C@H](CCc1ccccc1)NC(=O)CN1CCOCC1)C(=O)N[C@@H](Cc1ccccc1)C(=O)N[C@@H](CC(C)C)C(=O)[C@@]1(C)CO1 [Carfilzomib] | 1.04 | 1.32 | 1.16 | 1.16
9 | C=CC(=O)Nc1cc(Nc2nccc(-c3cn(C)c4ccccc34)n2)c(OC)cc1N(C)CCN(C)C [Osimertinib] | 3.05 | 2.46 | 2.73 | 3.89
10 | CNC(=O)c1cc(Oc2ccc(NC(=O)Nc3ccc(Cl)c(C(F)(F)F)c3)cc2)ccn1 [Sorafenib] | 3.88 | 3.9 | 3.78 | 3.98
11 | CC(=O)[C@]1(O)Cc2c(O)c3c(c(O)c2[C@@H](O[C@H]2C[C@H](N)[C@H](O)[C@H](C)O2)C1)C(=O)c1ccccc1C3=O [Idarubicin hydrochloride] | 1.41 | 0.851 | 1.1 | < 0.826
12 | CC(C)n1nc(-c2ccc3oc(N)nc3c2)c2c(N)ncnc21 [INK 128] | 1.42 | > 4.4 | 1.21 | 1.45
13 | CC1(C)CCC(CN2CCN(c3ccc(C(=O)NS(=O)(=O)c4ccc(NCC5CCOCC5)c([N+](=O)[O-])c4)c(Oc4cnc5[nH]ccc5c4)c3)CC2)=C(c2ccc(Cl)cc2)C1 [ABT-199] | 4.17 | 3.1 | 3.61 | 4.06
14 | C=CC(=O)N1CCC[C@@H](n2nc(-c3ccc(Oc4ccccc4)cc3)c3c(N)ncnc32)C1 [Ibrutinib] | 2.53 | 2.48 | 2.2 | 4.23
15 | CN(C)c1ccccc1CN1CCCN(Cc2ccccc2N(C)C)C1c1ccncc1 [GANT-61] | 2.53 | 2.6 | 1.27 | 1.22
16 | COc1cc2nccc(Oc3ccc(NC(=O)Nc4cc(C)on4)c(Cl)c3)c2cc1OC [Tivozanib] | > 4.4 | 3.74 | 2.5 | 3.6

Row | SMILES | IC50 (log10 nM) [1] | IC50 (log10 nM) [2] | IC50 (log10 nM) [3] | IC50 (log10 nM) [4]
17 | CN(C)C/C=C/C(=O)Nc1cc2c(Nc3ccc(F)c(Cl)c3)ncnc2cc1O[C@H]1CCOC1 [Afatinib] | 1.95 | 1.27 | 1.55 | 3.6
18 | Cc1c(N)nc([C@H](CC(N)=O)NC[C@H](N)C(N)=O)nc1C(=O)N[C@H](C(=O)N[C@H](C)[C@@H](O)[C@H](C)C(=O)N[C@H](C(=O)NCCc1nc(-c2nc(C(=O)NCCC[S+](C)C)cs2)cs1)[C@@H](C)O)[C@@H](OC1OC(CO)C(O)C(O)C1OC1OC(CO)C(O)C(OC(N)=O)C1O)c1cnc[nH]1 (stereo partly drawn) [Bleomycin] | 3.57 | > 4.4 | 3.85 | 3.83
19 | Cc1ccc(Nc2nccc(N(C)c3ccc4c(C)n(C)nc4c3)n2)cc1S(N)(=O)=O [Pazopanib] | 1.42 | > 4.4 | 4.21 | > 4.4
20 | CCN1CCN(Cc2ccc(Nc3ncc(F)c(-c4cc(F)c5nc(C)n(C(C)C)c5c4)n3)nc2)CC1 | 2.7 | 2.47 | 2.94 | 2.88
21 | COC1=CC(c2cc3ccccc3[nH]2)=N/C1=C\c1[nH]c(C)cc1C [Obatoclax] | 3.06 | 2.26 | 2.31 | 2.81
22 | Cn1nccc1Nc1nccc(-c2ccn([C@H](CO)c3ccc(Cl)c(F)c3)c(=O)c2)n1 [Ravoxertinib] | > 4.4 | 3.44 | 3.18 | 3.74
23 | COc1ccc(/C=C\c2cc(OC)c(OC)c(OC)c2)cc1OP(=O)(O)O [Fosbretabulin disodium] | 2.47 | 1.85 | < 0.826 | 2.23
24 | CCN(CC)CCNC(=O)c1c(C)[nH]c(/C=C2\C(=O)Nc3ccc(F)cc32)c1C [Sunitinib] | 3.92 | 3.94 | 3.8 | 3.93
25 | C1=N/C2=N/c3ccc(OCCN4CCCC4)c(c3)COC/C=C/COCc3cccc(c3)C(=C1)N2 [Pacritinib] | 3.48 | 2.91 | 3.23 | 3.76
26 | CC(C)C[C@H](NC(=O)[C@H](Cc1ccccc1)NC(=O)c1cnccn1)B(O)O [Bortezomib] | 1.1 | 1.16 | 1.14 | 0.871
27 | CCc1cnn2c(NCc3ccc[n+]([O-])c3)cc(N3CCCC[C@H]3CCO)nc12 [Dinaciclib] | 4.11 | 4.28 | > 4.4 | > 4.4
28 | Nc1ncn([C@@H]2O[C@H](CO)[C@@H](O)[C@H]2O)c(=O)n1 [5-Azacytidine] | 3.5 | 3.58 | 3.78 | 3.64
29 | CC(=O)c1c(C)c2cnc(Nc3ccc(N4CCNCC4)cn3)nc2n(C2CCCC2)c1=O [Palbociclib] | 4.37 | 4.13 | 4.24 | 4.07
30 | Cc1cc(Nc2ncc(Cl)c(Nc3ccccc3S(=O)(=O)C(C)C)n2)c(OC(C)C)cc1C1CCNCC1 [LDK378] | 2.8 | 2.55 | 2.84 | 3.08
31 | CSc1ccc2c(c1)N(CCC1CCCCN1C)c1ccccc1S2 (stereo not drawn) [Thioridazine hydrochloride] | 4.13 | 3.52 | 3.9 | 4
32 | O=C(c1ccc(F)c(F)c1Nc1ccc(I)cc1F)N1CC(O)([C@@H]2CCCCN2)C1 [Cobimetinib] | 1.74 | 1.82 | 1.45 | 1.75
